In brackets after ≈: the same amount, converted by molar mass. Read-outs that look alike come from different tables or passages of the source.
Tests used:
[1] = tested on: A549 (human lung carcinoma cell line); experiment: Cytotoxicity assay (MTT, 5 d) on A549; type: cell-based; details: for IC50: Homo sapiens, A549, 120 h, MTT, 5 d incubation; for Cytotoxic activity against A549 (in words): positive control doxorubicin
Protocol: (§1) Cytotoxicity assay: A549 (human lung carcinoma cell line; ACC 107) and CHO-K1 (chinese hamster ovary cells; ACC 110) were obtained from the German Collection of Microorganisms and Cell Cultures (DSMZ) and cultured under the conditions recommended by the depositor. Cells were propagated in Dulbeccos’s Modified Eagle’s Medium (DMEM) and Ham’s F12 medium, respectively, supplemented with 10% fetal bovine serum (FBS), and seeded at 6×10^3 cells per well of 96-well plates in 120 μL of complete medium. After 2 h of equilibration (37 °C, 5% CO2), the cells were treated with a serial dilution of cytochalasins in 60 µL growth medium. Cytochalasins, doxorubicin as reference, as well as the solvent control were tested as duplicates in two independent experiments. After 5 d of incubation (37 °C, 5% CO2), a total of 20 μL of 5 mg/ml MTT (thiazolyl blue tetrazolium bromide) in phosphate -buffered saline (PBS) were added to each well […]
(§2) and the cells were further incubated for 2 h at 37 °C before the supernatant was discarded.
(§3) Subsequently, the cells were washed with 100 μL of PBS and treated with 100 μl of 2-propanol/10 N HCl (250:1) to dissolve formazan granules. Cell viability was measured as percentage relative to the respective solvent control by measuring the absorbance at 570 nm using a microplate reader (Tecan Infinite M200Pro). GraphPad Prism (version 10.0.3, GraphPad, Boston, MA, USA) was used for sigmoidal curve fitting to determine the IC50 values.

[2] = in vitro; type: in vitro ADME, mouse; details: for microsomal CLint: C57BL/6, mouse, microsomes; for half-life: mouse, read-out: Mouse liver microsome t1/2; for half-life / Mouse liver microsome t1/2: 1 μM compound, 0.5 mg/mL pooled C57BL/6 microsomes
Protocol: Assays in liver microsomes: For metabolic stability, the compound (1 μM) was incubated with 0.5 mg/mL pooled mouse (C57BL/6) microsomes (Xenotech, Kansas City, USA), 2 mM NADPH, 10 mM MgCl2 at 37 °C for 120 min on a microplate shaker. The metabolic stability of testosterone, verapamil and ketoconazole were determined in parallel to confirm the enzymatic activity of mouse/rat liver microsomes. The incubation was stopped after defined time points by precipitation of aliquots of the incubation mixture with 2 volumes of cold internal standard solution (15 nM diphenhydramine in 10% methanol/acetonitrile). Samples were stored on ice until the end of the incubation and precipitated protein was removed by centrifugation (15 min, 4 °C, and 4,000 g). Concentration of the remaining test compound at the different time points was analyzed by HPLC-MS/MS (Vanquish Flex coupled to a TSQ Altis Plus, Thermo Fisher, Dreieich, Germany) and used to determine half-life (t1/2). […]

[3] = tested on: Staphylococcus aureus Newman; experiment: Antibacterial activity against S. aureus Newman; type: cell-based; details: Table S22
[4] = in vitro; type: in vitro ADME, mouse; details: 1 μM compound, pooled CD-1 mouse plasma, read-out: Mouse plasma t1/2
Protocol: Plasma stability assays: To determine stability in plasma, the compound (1 μM) was incubated with pooled CD-1 mouse plasma (Neo Biotech, Nanterre, France). Samples were taken by mixing aliquots with 4 volumes of cold internal standard solution (12.5 nM diphenhydramine in 10% methanol/acetonitrile). The plasma stability of procain, propantheline and diltiazem were determined in parallel to confirm the enzymatic activity. Samples were stored on ice until the end of the incubation and precipitated protein was removed by centrifugation (15 min, 4 °C, 4,000 g, two centrifugation steps). Concentration of the remaining test compound at the different time points was analyzed by HPLC-MS/MS (Vanquish Flex coupled to a TSQ Altis Plus, Thermo Fisher, Dreieich, Germany). […]

[5] = tested on: E. coli ΔacrB (JW0451-2); experiment: Antibacterial activity against E. coli ΔacrB; type: cell-based; details: Escherichia coli, read-out: E. coli ΔacrB (JW0451-2) MIC
[6] = tested on: CHO-K1 (chinese hamster ovary cells); experiment: Cytotoxicity assay (MTT, 5 d) on CHO-K1; type: cell-based; details: Cricetulus griseus, CHO-K1, 120 h
Protocol: as §1, §2, §3

[7] = Table 1, intrinsic clearance from microsomal metabolism data
[8] = Table S22, intrinsic clearance calculated from microsomal metabolism data

| SMILES | IC50 ([1]; Table 1) | IC50 ([1]; Table S22) | microsomal CLint [2, 7] | half-life ([2]; Table 1, 120 min) | MIC [3] | half-life at 1 μM ([4]; Table 1) | MIC [5] | IC50 ([6]; Table 1, 5 d incubation) | IC50 ([6]; Table S22, 5 d incubation) | Cytotoxic activity against A549 (in words) [1] | microsomal CLint [2, 8] | half-life ([2]; Table S22) | half-life at 1 μM ([4]; Table S22) | Mouse liver microsome t1/2 ([2]; Table S22) |
| --- | --- | --- | --- | --- | --- | --- | --- | --- | --- | --- | --- | --- | --- | --- |
| CC(=O)OC1C2OC2C(C)C(=O)C(C)CC=CC2C3OC3(C)C(C)C3C(Cc4cccc(Cl)c4)NC(=O)C213 (stereo not drawn) [Compound 16, m-chloro-18-desoxy-19,20-epoxycytochalasin Q] | 0.08 ± 0.02 µg/mL (≈ 0.148 µM) | 1.02 ± 0.13 µg/mL (≈ 1.88 µM) | 984 ± 105 µL/min/mg | 1.4 ± 0.1 min | > 64 µg/mL | > 240 min | > 64 µg/mL | 0.41 ± 0.1 µg/mL (≈ 0.756 µM) | 3.13 ± 2.94 µg/mL (≈ 5.77 µM) |  |  |  |  |  |
| CC1=C(C)C2C(Cc3cccc(Br)c3)NC(=O)C23C(O)C2OC2C(C)(O)C(=O)C(C)CC=CC3C1O (stereo not drawn) [Compound 17, m-bromo-deacetyl-19,20-epoxycytochalasin C] | 0.14 ± 0.02 µg/mL (≈ 0.25 µM) | 0.19 ± 0.02 µg/mL (≈ 0.339 µM) | 43 ± 4 µL/min/mg | 32 ± 3 min | > 64 µg/mL | > 240 min | > 64 µg/mL | 0.49 ± 0.12 µg/mL (≈ 0.874 µM) |  | lower nanomolar activities |  |  |  |  |
| CC(=O)OC1C2OC2C(C)(O)C(=O)C(C)CC=CC2C3OC3(C)C(C)C3C(Cc4cccc(Br)c4)NC(=O)C213 (stereo not drawn) [Compound 18, m-bromo-19,20-epoxycytochalasin Q] | 0.19 ± 0.01 µg/mL (≈ 0.315 µM) | 0.31 ± 0.01 µg/mL (≈ 0.515 µM) | 77 ± 19 µL/min/mg | 19 ± 4 min | > 64 µg/mL | > 240 min | > 64 µg/mL | 0.94 ± 0.21 µg/mL (≈ 1.56 µM) |  |  |  |  |  |  |
| CC1CC=CC2C3OC3(C)C(C)C3C(Cc4cccc(Br)c4)NC(=O)C23C(O)C2OC2C(C)(O)C1=O (stereo not drawn) [Compound 19, m-bromo-deacetyl-19,20-epoxycytochalasin Q] |  | > 37 µg/mL |  |  | > 64 µg/mL |  | > 64 µg/mL |  | 0.63 ± 0.24 µg/mL (≈ 1.12 µM) |  | 60 ± 4 µL/min/mg | 23.1 ± 1.5 min | > 240 min |  |
| CC1CC=CC2C3OC3(C)C(C)C3C(Cc4ccccc4Br)NC(=O)C23C(=O)C2OC2C(C)(O)C1=O (stereo not drawn) [Compound 20, o-bromo-19,20-epoxy-21-oxocytochalasin Q] |  | 0.62 ± 0.04 µg/mL (≈ 1.11 µM) |  |  | > 64 µg/mL |  | > 64 µg/mL |  | 1.38 ± 0.04 µg/mL (≈ 2.47 µM) |  | 234 ± 28 µL/min/mg | 6 ± 0.7 min | > 240 min |  |
| C[C@H]1C/C=C/[C@H]2[C@@H]3O[C@]3(C)[C@@H](C)[C@H]3[C@H](Cc4ccccc4Br)NC(=O)[C@]32C(=O)C[C@@H](O)[C@@](C)(O)C1=O [Compound 21, o-bromo-19-hydroxy-21-oxocytochalasin Q] |  | 0.79 ± 0.24 µg/mL (≈ 1.41 µM) |  |  | > 64 µg/mL |  | > 64 µg/mL |  | 3.04 ± 0.18 µg/mL (≈ 5.42 µM) |  | 124 ± 9 µL/min/mg | 11.2 ± 0.8 min | > 240 min |  |
| CC(=O)OC1C2OC2C(C)(O)C(=O)C(C)CC=CC2C(O)C(C)=C(C)C3C(CC(=O)O)NC(=O)C213 (stereo not drawn) [Compound 22, xylachalasin A] | > 37 µg/mL |  |  | > 120 min | > 64 µg/mL | > 240 min | > 64 µg/mL | > 37 µg/mL |  |  | < 11.6 µL/min/mg |  |  | >120 min |
| CC(=O)OC1C(C)=C(C)C2C(Cc3ccccc3)NC(=O)C23C1C=CCC(C)C(=O)C(C)(O)C1OC1C3OC(C)=O (stereo not drawn) [Compound 23, 7-acetyl-19,20-epoxycytochalasin C] | > 37 µg/mL |  | 231 ± 36 µL/min/mg | 6.1 ± 1 min | > 64 µg/mL | > 240 min | > 64 µg/mL | 15.7 ± 3.05 µg/mL (≈ 27.7 µM) |  | pronounced reduced activity |  |  |  |  |
| CC(=O)OC1C2OC2C(C)(O)C(=O)C(C)CC=CC2C3OC3(C)C(C)C3C(Cc4ccccc4)N(C(C)=O)C(=O)C213 (stereo not drawn) [Compound 24, N-acetyl-19,20-epoxycytochalasin Q] |  | 0.72 ± 0.12 µg/mL (≈ 1.27 µM) |  |  | > 64 µg/mL |  | > 64 µg/mL |  | 3.06 ± 0.5 µg/mL (≈ 5.41 µM) |  | 558 ± 58 µL/min/mg | 2.5 ± 0.3 min | > 240 min |  |
| C#CCCC1(CCC(=O)OC2C(C)=C(C)C3C(Cc4ccccc4)NC(=O)C34C2C=CCC(C)C(=O)C(C)(O)C2OC2C4OC(C)=O)N=N1 (stereo not drawn) [Compound 25, 7-diazirin-19,20-epoxycytochalasin C] | 24.9 µg/mL (≈ 37.1 µM) |  | 907 ± 388 µL/min/mg | 1.7 ± 0.6 min | > 64 µg/mL | > 240 min | > 64 µg/mL | 14.2 ± 1.93 µg/mL (≈ 21.2 µM) |  | pronounced reduced activity |  |  |  |  |
| C#CCCC1(CCC(=O)OC2C(=C)C(C)C3C(Cc4ccccc4)NC(=O)C34C2C=CCC(C)C(=O)C(C)(O)C2OC2C4OC(C)=O)N=N1 (stereo not drawn) [Compound 26, 7-diazirin-19,20-epoxycytochalasin D] |  | 10.3 µg/mL (≈ 15.3 µM) |  |  | > 64 µg/mL |  | > 64 µg/mL |  | 7.02 ± 1.16 µg/mL (≈ 10.4 µM) |  | 1020 ± 120 µL/min/mg | 1.4 ± 0.1 min | > 240 min |  |
| CC(=O)OC1C2OC2C(C)(O)C(=O)C(C)CC=CC2C(O)C3(C)OC3(C)C3C(Cc4ccccc4)NC(=O)C213 (stereo not drawn) [Compound 27, 19,20-epoxycytochalasin N] | 0.84 ± 0.04 µg/mL (≈ 1.56 µM) |  | < 11.6 µL/min/mg | > 120 min | > 64 µg/mL | 133 ± 9 min | > 64 µg/mL | 10.6 ± 1.42 µg/mL (≈ 19.6 µM) |  |  |  |  |  | >120 min |

— article PMC12848680, “Microbial Cross-Talk: Unlocking the Cytochalasin Diversity from a Termite-Associated Xylaria” (JACS Au, 2025)
